Measurements reported in US20190298621A1, “METHODS OF TREATMENT OF THE DENTAL PULP AND FILLING ROOT CANALS USING ANTI INFLAMMATORY RINSE SOLUTION AND FILLING COMPOSITION” (DENTSPLY SIRONA Inc., priority 2018, published 2019).

Assay: Anti-inflammatory agent solubility in solvents
Format: physicochemical
Settings: for Solvent (anti-inflammatory agent solubility in solvents): solvent in which the agent is miscible, ambient conditions
Experimental: An anti-inflammatory rinse solution was prepared by mixing anti-inflammatory agent in a solvent in which they are miscible in a vial under ambient conditions as shown in Table 2.

Compound	Solvent (anti-inflammatory agent solubility in solvents)	solubility in water
Cc1c(C)c2c(c(C)c1O)CC[C@@](C)(CCC[C@H](C)CCC[C@H](C)CCCC(C)C)O2 [Vitamin E, α-tocopherol]	Ethanol	insoluble in water
O=C(/C=C/c1ccccc1)c1ccccc1 [Chalcone]	Ethanol	
C=CCc1ccc(O)c(OC)c1 [Eugenol]	Ethanol	partially soluble in water

More lines, now with the values ahead:

Solvent (anti-inflammatory agent solubility in solvents)	solubility in water	Compound
Water		OC[C@@H](O)[C@H](O)[C@@H](O)CO [Xylitol]
	partially soluble in water	CC(C)Cc1ccc(C(C)C(=O)O)cc1 (stereo not shown) [Ibuprofen]
